{"source": "patent US8952024B2", "about": "“Herbicidal pyrimidone derivatives” (E I du Pont de Nemours and Company, priority 2009, dated 2015)", "assay_in_all_cases": "Test B pre-/postemergence plant response", "type_in_all_cases": "in vivo", "key": {"[1]": {"test_system": "green foxtail (Setaria viridis)", "in_short": "(§1)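 Plants treated either at seeding (loam/sand soil) or postemergence at 2 to 18 cm height, using a surfactant-containing non-phytotoxic solvent formulation. Evaluation was visual after 13 to 15 days, 0 to 100 scale relative to controls.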"}, "[2]": {"test_system": "downy bromegrass (Bromus tectorum)", "in_short": "as §1"}, "[3]": {"test_system": "yellow nutsedge (Cyperus esculentus)", "in_short": "as §1"}, "[4]": {"test_system": "woolly cupgrass (Eriochloa villosa)", "in_short": "as §1"}, "[5]": {"test_system": "Italian ryegrass (Lolium multiflorum)", "in_short": "as §1"}, "[6]": {"test_system": "giant foxtail (Setaria faberii)", "in_short": "as §1"}, "[7]": {"test_system": "blackgrass (Alopecurus myosuroides)", "in_short": "as §1"}, "[8]": {"test_system": "large crabgrass (Digitaria sanguinalis)", "in_short": "as §1"}, "corn (Zea mays)": {"test_system": "corn (Zea mays)", "in_short": "as §1"}, "[9]": {"test_system": "Surinam grass (Brachiaria decumbens)", "in_short": "as §1"}, "[10]": {"test_system": "lambsquarters (Chenopodium album)", "in_short": "as §1"}, "[11]": {"test_system": "morningglory (Ipomoea coccinea)", "in_short": "as §1"}, "[12]": {"test_system": "bermudagrass (Cynodon dactylon)", "in_short": "as §1"}, "[13]": {"details": "Postemergence, 31 g ai/ha, 0 to 100 scale (0 no effect, 100 complete control)"}, "[14]": {"details": "Postemergence, 62 g ai/ha, scale 0 to 100 (0 no effect, 100 complete control)"}, "[15]": {"details": "Postemergence, 125 g ai/ha, scale 0 (no effect) to 100 (complete control), 13 to 15 days"}, "[16]": {"details": "Postemergence, 250 g ai/ha, scale 0 to 100 (0 no effect, 100 complete control), 13 to 15 days"}, "[17]": {"details": "Preemergence, 31 g ai/ha, scale 0 to 100 (0 no effect, 100 complete control)"}, "[18]": {"details": "Preemergence, 62 g ai/ha, scale 0 to 100 (0 no effect, 100 complete control)"}, "[19]": {"details": "Preemergence, 125 g ai/ha, scale 0 to 100, 0 no effect, 100 complete control"}, "[20]": {"details": "Preemergence, 250 g ai/ha, 0 to 100 scale"}}}
{"smiles": "CCCCn1c(-c2cc(F)cc(F)c2)ncc(C(=O)C2=C(O)C3CCC(C3)C2=O)c1=O", "note": "(centres unmarked) [Compound 245]", "values": [{"measurement": "Plant response rating, Foxtail, Green", "setting": "[1]; [13]", "value": 85}, {"measurement": "Plant response rating, Foxtail, Green", "setting": "[1]; [14]", "value": 98}, {"measurement": "Plant response rating, Foxtail, Green", "setting": "[1]; [15]", "value": 100}, {"measurement": "Plant response rating, Foxtail, Green", "setting": "[1]; [16]", "value": 100}, {"measurement": "Plant response rating, Foxtail, Green", "setting": "[1]; [17]", "value": 0}, {"measurement": "Plant response rating, Foxtail, Green", "setting": "[1]; [18]", "value": 0}, {"measurement": "Plant response rating, Foxtail, Green", "setting": "[1]; [19]", "value": 75}, {"measurement": "Foxtail, Green plant response rating", "setting": "[1]; [20]", "value": 100}, {"measurement": "Plant response rating, Bromegrass, Downy", "setting": "[2]; [13]", "value": 60}, {"measurement": "Plant response rating, Bromegrass, Downy", "setting": "[2]; [14]", "value": 95}, {"measurement": "Plant response rating, Bromegrass, Downy", "setting": "[2]; [15]", "value": 95}, {"measurement": "Plant response rating, Bromegrass, Downy", "setting": "[2]; [16]", "value": 95}, {"measurement": "Plant response rating, Bromegrass, Downy", "setting": "[2]; [17]", "value": 0}, {"measurement": "Plant response rating, Bromegrass, Downy", "setting": "[2]; [18]", "value": 0}, {"measurement": "Plant response rating, Bromegrass, Downy", "setting": "[2]; [19]", "value": 0}, {"measurement": "Bromegrass, Downy plant response rating", "setting": "[2]; [20]", "value": 15}, {"measurement": "Plant response rating, Nutsedge, Yellow", "setting": "[3]; [13]", "value": 40}, {"measurement": "Plant response rating, Nutsedge, Yellow", "setting": "[3]; [14]", "value": 45}, {"measurement": "Plant response rating, Nutsedge, Yellow", "setting": "[3]; [15]", "value": 70}, {"measurement": "Plant response rating, Nutsedge, Yellow", "setting": "[3]; [16]", "value": 75}, {"measurement": "Plant response rating, Nutsedge, Yellow", "setting": "[3]; [17]", "value": 0}, {"measurement": "Plant response rating, Nutsedge, Yellow", "setting": "[3]; [18]", "value": 0}, {"measurement": "Plant response rating, Nutsedge, Yellow", "setting": "[3]; [19]", "value": 65}, {"measurement": "Nutsedge, Yellow plant response rating", "setting": "[3]; [20]", "value": 80}, {"measurement": "Plant response rating, Cupgrass, Woolly", "setting": "[4]; [13]", "value": 100}, {"measurement": "Plant response rating, Cupgrass, Woolly", "setting": "[4]; [14]", "value": 100}, {"measurement": "Plant response rating, Cupgrass, Woolly", "setting": "[4]; [15]", "value": 100}, {"measurement": "Plant response rating, Cupgrass, Woolly", "setting": "[4]; [16]", "value": 100}, {"measurement": "Plant response rating, Cupgrass, Woolly", "setting": "[4]; [17]", "value": 50}, {"measurement": "Plant response rating, Cupgrass, Woolly", "setting": "[4]; [18]", "value": 70}, {"measurement": "Plant response rating, Cupgrass, Woolly", "setting": "[4]; [19]", "value": 80}, {"measurement": "Cupgrass, Woolly plant response rating", "setting": "[4]; [20]", "value": 100}, {"measurement": "Plant response rating, Ryegrass, Italian", "setting": "[5]; [13]", "value": 40}, {"measurement": "Plant response rating, Ryegrass, Italian", "setting": "[5]; [14]", "value": 50}, {"measurement": "Plant response rating, Ryegrass, Italian", "setting": "[5]; [15]", "value": 70}, {"measurement": "Plant response rating, Ryegrass, Italian", "setting": "[5]; [16]", "value": 85}, {"measurement": "Plant response rating, Ryegrass, Italian", "setting": "[5]; [17]", "value": 0}, {"measurement": "Plant response rating, Ryegrass, Italian", "setting": "[5]; [18]", "value": 0}, {"measurement": "Plant response rating, Ryegrass, Italian", "setting": "[5]; [19]", "value": 0}, {"measurement": "Ryegrass, Italian plant response rating", "setting": "[5]; [20]", "value": 40}, {"measurement": "Plant response rating, Foxtail, Giant", "setting": "[6]; [13]", "value": 98}, {"measurement": "Plant response rating, Foxtail, Giant", "setting": "[6]; [14]", "value": 100}, {"measurement": "Plant response rating, Foxtail, Giant", "setting": "[6]; [15]", "value": 100}, {"measurement": "Plant response rating, Foxtail, Giant", "setting": "[6]; [16]", "value": 100}, {"measurement": "Plant response rating, Foxtail, Giant", "setting": "[6]; [17]", "value": 0}, {"measurement": "Plant response rating, Foxtail, Giant", "setting": "[6]; [18]", "value": 10}, {"measurement": "Plant response rating, Foxtail, Giant", "setting": "[6]; [19]", "value": 90}, {"measurement": "Foxtail, Giant plant response rating", "setting": "[6]; [20]", "value": 100}, {"measurement": "Plant response rating, Blackgrass", "setting": "[7]; [13]", "value": 40}, {"measurement": "Plant response rating, Blackgrass", "setting": "[7]; [14]", "value": 70}, {"measurement": "Plant response rating, Blackgrass", "setting": "[7]; [15]", "value": 80}, {"measurement": "Plant response rating, Blackgrass", "setting": "[7]; [16]", "value": 80}, {"measurement": "Plant response rating, Blackgrass", "setting": "[7]; [17]", "value": 0}, {"measurement": "Plant response rating, Blackgrass", "setting": "[7]; [18]", "value": 5}, {"measurement": "Plant response rating, Blackgrass", "setting": "[7]; [19]", "value": 30}, {"measurement": "Blackgrass plant response rating", "setting": "[7]; [20]", "value": 45}, {"measurement": "Plant response rating, Crabgrass, Large", "setting": "[8]; [13]", "value": 80}, {"measurement": "Plant response rating, Crabgrass, Large", "setting": "[8]; [14]", "value": 100}, {"measurement": "Plant response rating, Crabgrass, Large", "setting": "[8]; [15]", "value": 100}, {"measurement": "Plant response rating, Crabgrass, Large", "setting": "[8]; [16]", "value": 100}, {"measurement": "Plant response rating, Crabgrass, Large", "setting": "[8]; [17]", "value": 60}, {"measurement": "Plant response rating, Crabgrass, Large", "setting": "[8]; [18]", "value": 100}, {"measurement": "Plant response rating, Crabgrass, Large", "setting": "[8]; [19]", "value": 100}, {"measurement": "Crabgrass, Large plant response rating", "setting": "[8]; [20]", "value": 100}, {"measurement": "Plant response rating, Corn", "setting": "corn (Zea mays); [13]", "value": 100}, {"measurement": "Plant response rating, Corn", "setting": "corn (Zea mays); [14]", "value": 100}, {"measurement": "Plant response rating, Corn", "setting": "corn (Zea mays); [15]", "value": 100}, {"measurement": "Plant response rating, Corn", "setting": "corn (Zea mays); [16]", "value": 100}, {"measurement": "Plant response rating, Corn", "setting": "corn (Zea mays); [17]", "value": 0}, {"measurement": "Plant response rating, Corn", "setting": "corn (Zea mays); [18]", "value": 5}, {"measurement": "Plant response rating, Corn", "setting": "corn (Zea mays); [19]", "value": 25}, {"measurement": "Corn plant response rating", "setting": "corn (Zea mays); [20]", "value": 65}, {"measurement": "Plant response rating, Surinam Grass", "setting": "[9]; [13]", "value": 100}, {"measurement": "Plant response rating, Surinam Grass", "setting": "[9]; [14]", "value": 100}, {"measurement": "Plant response rating, Surinam Grass", "setting": "[9]; [15]", "value": 100}, {"measurement": "Plant response rating, Surinam Grass", "setting": "[9]; [16]", "value": 100}, {"measurement": "Plant response rating, Surinam Grass", "setting": "[9]; [17]", "value": 95}, {"measurement": "Plant response rating, Surinam Grass", "setting": "[9]; [18]", "value": 100}, {"measurement": "Plant response rating, Surinam Grass", "setting": "[9]; [19]", "value": 100}, {"measurement": "Surinam Grass plant response rating", "setting": "[9]; [20]", "value": 100}, {"measurement": "Plant response rating, Lambsquarters", "setting": "[10]; [13]", "value": 98}, {"measurement": "Plant response rating, Lambsquarters", "setting": "[10]; [14]", "value": 100}, {"measurement": "Plant response rating, Lambsquarters", "setting": "[10]; [15]", "value": 100}, {"measurement": "Plant response rating, Lambsquarters", "setting": "[10]; [16]", "value": 100}, {"measurement": "Plant response rating, Lambsquarters", "setting": "[10]; [17]", "value": 100}, {"measurement": "Plant response rating, Lambsquarters", "setting": "[10]; [18]", "value": 100}, {"measurement": "Plant response rating, Lambsquarters", "setting": "[10]; [19]", "value": 100}, {"measurement": "Lambsquarters plant response rating", "setting": "[10]; [20]", "value": 100}, {"measurement": "Plant response rating, Morningglory", "setting": "[11]; [13]", "value": 90}, {"measurement": "Plant response rating, Morningglory", "setting": "[11]; [14]", "value": 100}, {"measurement": "Plant response rating, Morningglory", "setting": "[11]; [15]", "value": 100}, {"measurement": "Plant response rating, Morningglory", "setting": "[11]; [16]", "value": 100}, {"measurement": "Plant response rating, Morningglory", "setting": "[11]; [17]", "value": 0}, {"measurement": "Plant response rating, Morningglory", "setting": "[11]; [18]", "value": 0}, {"measurement": "Plant response rating, Morningglory", "setting": "[11]; [19]", "value": 65}, {"measurement": "Morningglory plant response rating", "setting": "[11]; [20]", "value": 100}, {"measurement": "Plant response rating, Bermudagrass", "setting": "[12]; [13]", "value": 80}, {"measurement": "Plant response rating, Bermudagrass", "setting": "[12]; [14]", "value": 100}, {"measurement": "Plant response rating, Bermudagrass", "setting": "[12]; [15]", "value": 100}, {"measurement": "Plant response rating, Bermudagrass", "setting": "[12]; [16]", "value": 100}, {"measurement": "Plant response rating, Bermudagrass", "setting": "[12]; [17]", "value": 98}, {"measurement": "Plant response rating, Bermudagrass", "setting": "[12]; [18]", "value": 100}, {"measurement": "Plant response rating, Bermudagrass", "setting": "[12]; [19]", "value": 100}, {"measurement": "Bermudagrass plant response rating", "setting": "[12]; Preemergence, 250 g ai/ha, 0 to 100 scale, 0 no effect, 100 complete control", "value": 100}]}
